One assay has as its target T1, Human eIF4E (aa 28-217) (Homo sapiens, UniProt P06730).
T1 construct: Human eIF4E (aa 28-217) with a C-terminal His-tag; made in house
Nature of the assay: 4G-eIF4E protein-based assay (TR-FRET, biotin labeled 4G2 peptide). It is filed as binding. How it is done: Human eIF4E ([…]) with a C-terminal His-tag was expressed in E. coli in inclusion bodies. The protein was solubilized with 8 M urea and purified under denaturing conditions using nickel-charged HisTrap HP columns (GE Healthcare). The purified protein was then refolded by diluting in 20 mM Hepes pH 7.0, 0.5 M NaCl, 1 mM DTT, […], 0.5 M arginine plus 6 M urea, and then dialyzing overnight into the same buffer without the urea. The protein was further dialyzed into 20 mM Hepes, pH 6.5, 50 mM NaCl, 1 mM EDTA, 1 mM DTT, and concentrated using Hitrap SP sepharose FF columns (GE Healthcare). The concentrated protein was dialyzed into 20 mM Hepes, pH 7.0, 0.5M NaCl, 5 mM DTT and […], and stored at -80° C. until use. Test compounds (3.43 mM stock in DMSO) were diluted 2-fold in series in DMSO (10 concentration points). Compound solutions (1.2 μL/well) were added into black 384-well polypropylene microplates (Matrix, Thermal Scientific). […] The samples were incubated at room temperature (20-23° C.) for 4 hours. Biotin labeled 4G2 peptide ([…])-NH2, 1.75 μM stock in DMSO) was diluted to 0.13 μM in Assay Buffer (without DTT) and 5 μL/well was added. The samples were incubated at room temperature for 20 min. Five microliters per well of 15 nM Eu-streptavidin (Eu-SA, Perkin Elmer) and 96 nM Allophycocyanin (APC)-anti His antibody (Columbia Biosciences) in Assay Buffer (without DTT) were then added and the samples were incubated at room temperature for 20 min. Assay signals were monitored by reading excitation at 340 nm and emission fluorescence at 615 nm and 665 nm on an Envision reader (Perkin Elmer). Normalized TR-FRET (time-resolved fluorescence resonance energy transfer) assay signal (Rn) was calculated by the formula: […] C=(Ac-Ba)/(Dc-Bd) • Where Ac is the fluorescence intensity of 1.5 nM Eu-SA in the assay buffer at 665 nm. IC50 values were calculated using xLFit program (IDBS).
A general note: TR-FRET usually uses a lanthanide donor and a delayed reading to cut background.

The test system of a further assay is T47D. The assay is described as follows: Cell viability assay, adherent cell line, 5 day Alamar Blue (Example 8): T47D. Format: cell-based. The note with it: Homo sapiens, 120 h, Breast Cancer Cell Viability. How it is done:
(§1) Cell viability assays were performed on certain compounds of the disclosure, according to the following procedure.
(§2) Cell line specific media conditions used:
(§3) The procedure for adherent cell line compound screening was as follows:
(§4) • Cells were seeded in 96-well cell culture treated tissue culture plates: ZR-75-1, NIHOVCAR3, T47D, and LOVO cells 4000 cells/well; and HPAFII 3000 cell/well
(§5) Day 3: Compound Dilution and Dosing
(§6) • 5-fold serial dilution (8 point) of each compound in DMSO 0-25 mM in compound storage plates was prepared (stored at −80° C. if not to be used immediately). • Cells were rinsed with 1% FBS Media (appropriate to cell line as described above) and replaced with 87.5 μL media prior to dosing. HPAFII was screened in normal 10% FBS Media. • DMSO compound dilution series was diluted in 1% FBS media (appropriate to cell line as described above)—2 μL in 248 μL to give an 8× final concentration. • Cells were dosed 12.5 μL/well in triplicate to give final dose curved on cells 0-25 μM. • Media blank 100 μL/well×8 was set up. • All plates were incubated at 37° C.
(§7) Day 8: 5 Day Viability Assay
(§8) • Alamar Blue viability reagent was added (10 μL per well) and incubated for 3 hours at 37° C. prior to fluorescence detection (Ex560 nm/Em590 nm) on a Varioskan Lux multimode plate reader.
(§9) Results from cell viability assays are summarized in Table 23, wherein A represents IC50≤1 μM; B represents 1 μM<IC50≤8 μM; and C represents IC50>8 μM. Blank cells indicate that the compound was not tested in a particular assay.
(In general: Resazurin is reduced to fluorescent resorufin, in cell work by metabolically active cells.)

Another assay concerns MM.1R. Nature of the assay: Cell viability assay, suspension cell line, 5 day Alamar Blue (Example 8): MM.1R. It is filed as cell-based. The following applies: 120 h, Multiple Myeloma (Steroid Resistant) Cancer Cell. The method, then: as §1, §2
(§10) The procedure for suspension cell line compound screening was as follows:
(§11) Day 1: Cell Seeding and Compound Dosing
as §6, with “• Cells were seeded 2×10^5 in 96-well cell culture treated tissue culture plates: 87.5 μL/well; MM.1 S, MM,1R, NCIH510A. • 5-fold” for “• 5-fold”, “to dosing. • DMSO” for “to dosing. HPAFII was screened in normal 10% FBS Media. • DMSO”
(§12) Day 6: 5 Day Viability Assay
as §8, §9

The subject of a further assay is NIHOVCAR3. The assay is described as follows: Cell viability assay, adherent cell line, 5 day Alamar Blue (Example 8): NIHOVCAR3. The following applies: Homo sapiens, OVCAR-3, 120 h, OVCAR3, Ovarian Cancer Cell. Format: cell-based. How it is done:
as §1, §2, §3, §4, §5, §6, §7, §8, §9

For the next assay, the system named is MM.1S. Nature of the assay: Cell viability assay, suspension cell line, 5 day Alamar Blue (Example 8): MM.1S. The following applies: Homo sapiens, MM1.S, 120 h, Multiple Myeloma (Steroid Sensitive) Cancer Cell. Format: cell-based. The method, then: as §1, §2, §10, §11
as §6, with “• Cells were seeded 2×10^5 in 96-well cell culture treated tissue culture plates: 87.5 μL/well; MM.1 S, MM,1R, NCIH510A. • 5-fold” for “• 5-fold”, “to dosing. • DMSO” for “to dosing. HPAFII was screened in normal 10% FBS Media. • DMSO”
as §12, §8, §9

The test system of another assay is ZR-75-1. Nature of the assay: ZR-75-1 compound screening cell viability, Alamar Blue (Example 6). It is filed as cell-based. The following applies: Homo sapiens, 96 h, ZR-75-1 cells, Media 1% FBS, read-out: ZR-75-1 Cell Viability, 4 Days: IC50.
The test system of another assay is HPAFII. The assay is described as follows: Cell viability assay, adherent cell line, 5 day Alamar Blue (Example 8): HPAFII. It is filed as cell-based. The note with it: Homo sapiens, HPAF-II, 120 h, Pancreatic Cancer Cell. The method, then: as §1, §2, §3, §4, §5, §6, §7, §8, §9
The subject of the next assay is NCIH510A. The assay is described as follows: Cell viability assay, suspension cell line, 5 day Alamar Blue (Example 8): NCIH510A. It is filed as cell-based. The following applies: Homo sapiens, NCI-H510A, 120 h, Small Cell Lung Cancer Cell Line. How it is done:
as §1, §2, §10, §11
as §6, with “• Cells were seeded 2×10^5 in 96-well cell culture treated tissue culture plates: 87.5 μL/well; MM.1 S, MM,1R, NCIH510A. • 5-fold” for “• 5-fold”, “to dosing. • DMSO” for “to dosing. HPAFII was screened in normal 10% FBS Media. • DMSO”
as §12, §8, §9

The subject of the next assay is LoVo. The assay is described as follows: Cell viability assay, adherent cell line, 5 day Alamar Blue (Example 8): LoVo. Format: cell-based. The note with it: Homo sapiens, 120 h, Colorectal Cancer Cell Viability. The method, then:
as §1, §2, §3, §4, §5, §6, §7, §8, §9

T1 sequence (P06730 28-217): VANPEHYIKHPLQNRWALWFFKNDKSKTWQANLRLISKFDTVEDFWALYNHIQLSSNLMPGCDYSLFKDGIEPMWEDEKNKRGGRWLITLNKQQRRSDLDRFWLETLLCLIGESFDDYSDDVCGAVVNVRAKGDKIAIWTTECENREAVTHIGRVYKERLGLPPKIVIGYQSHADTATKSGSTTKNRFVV

Compound `CC(C)Cc1sc(Nc2ncc(-c3cccs3)cc2C(=O)O)nc1C1=CCOCC1` [Compound I-1] had a half-inhibitory concentration (IC50) on Human eIF4E (aa 28-217) of 500 to 1000 nM.

In the case of `CC(C)Cc1sc(Nc2ncc(-c3cccs3)cc2C(=O)O)nc1C1CCCCC1` [Compound I-3], the IC50 in the assay with T47D was 1000 to 8000 nM; at Human eIF4E (aa 28-217), 500 to 1000 nM; with MM.1R, 1000 to 8000 nM; in the assay on NIHOVCAR3, 1000 to 8000 nM; with MM.1S, 1000 to 8000 nM; in the assay on ZR-75-1, less than 1000 nM. Further, the IC50 is not above 1000 nM in the assay on HPAFII, 1000 to 8000 nM in the assay on NCIH510A and 1000 to 8000 nM with LoVo.

As to `CC(C)Cc1sc(Nc2ncc(-c3cccs3)cc2C(=O)O)nc1C1=CCCC1` [Compound I-8], the IC50 in the assay on T47D is not above 1000 nM; against Human eIF4E (aa 28-217), 500 to 1000 nM; with MM.1R it was not above 1000 nM; in the assay with NIHOVCAR3, not above 1000 nM; in the assay with MM.1S, not above 1000 nM; in the assay with HPAFII, not above 1000 nM. Further, the IC50 with NCIH510A and with LoVo was not above 1000 nM throughout.

For the compound `CC(C)Cc1sc(Nc2ncc(-c3cccs3)cc2C(=O)O)nc1C(C)(C)C` [Compound I-11], the IC50 was not above 1000 nM with T47D; 500 to 1000 nM against Human eIF4E (aa 28-217); not above 1000 nM in the assay on MM.1R; not above 1000 nM in the assay on NIHOVCAR3; not above 1000 nM in the assay on MM.1S; less than 1000 nM in the assay on ZR-75-1. Further, the IC50 in the assay with HPAFII, in the assay on NCIH510A and in the assay on LoVo was not above 1000 nM in each case.

As for `CC(C)Cc1sc(Nc2ncc(-c3cccs3)cc2C(=O)O)nc1C1(C)CCCCC1` [Compound I-27], the IC50 in the assay with T47D was not above 1000 nM; against Human eIF4E (aa 28-217) it was not above 500 nM; in the assay with MM.1R it was 1000 to 8000 nM; in the assay on NIHOVCAR3, 1000 to 8000 nM; with MM.1S, 1000 to 8000 nM; in the assay on HPAFII, 1000 to 8000 nM. Further, the IC50 in the assay with NCIH510A and in the assay with LoVo was not above 1000 nM in each case.

`CC(C)Cc1sc(Nc2ncc(-c3cccs3)cc2C(=O)O)nc1C1CCC(F)(F)CC1` [Compound I-29]: the IC50 lay within 1000 to 8000 nM in the assay on T47D; 500 to 1000 nM on Human eIF4E (aa 28-217); 1000 to 8000 nM with MM.1R; 1000 to 8000 nM in the assay on NIHOVCAR3; 1000 to 8000 nM in the assay on MM.1S; 1000 to 8000 nM in the assay with HPAFII. Also, the IC50 is not above 1000 nM with NCIH510A and 1000 to 8000 nM in the assay on LoVo.

By IC50 is commonly meant the point on the concentration scale where inhibition reaches its midpoint.
